Read-outs that look alike come from different tables or passages of the source.
Test system: T1, Wld^S
T1 construct: gene Nmnat1; full-length Wld^S ORF (1119 bp): N-terminal Ube4b fragment fused to NMNAT1; predicted mass 44001 Da; with Ubiquitin conjugation factor E4 B
Assay: C18-HPLC of NAD formed, nonlinear fit
Type: biochemical, Mus musculus
Settings: HEPES/KOH pH 7.5, MgCl2, 37°C
From the text: C18-HPLC of NAD formed, nonlinear fit on Wld^S

Row | Km (read-out: ATP / K m, co-substrate NMN, ATP 25–175 µM) [µM] | Km (co-substrate ATP, NMN 5–100 µM, read-out: NMN / K m) [µM] | SMILES
1 | 29.6 ± 1.8 |  | Nc1ncnc2c1ncn2[C@@H]1O[C@H](COP(=O)(O)OP(=O)(O)OP(=O)(O)O)[C@@H](O)[C@H]1O [ATP]
2 |  | 32.2 ± 1.2 | NC(=O)c1ccc[n+]([C@@H]2O[C@H](COP(=O)(O)O)[C@@H](O)[C@H]2O)c1 [NMN]

Source: PMC3534050, “Simultaneous Single-Sample Determination of NMNAT Isozyme Activities in Mouse Tissues” (PLoS ONE, 2012)
